Measurements from patent US8304202B2, “Interaction of BIM with TRIM2” (priority 2007, dated 2012).
Entries after “also recorded” stand apart in the source; their conditions may differ. Like-named read-outs stand apart in the source and are kept apart here. Residues, ends and D or L forms follow the SMILES beside them. *: point of attachment. Cbz = O=C(OCc1ccccc1)*

How the values were obtained:
Bim protein = Bim protein levels by immunoblot following preconditioning ischemia; format: cell-based, rat; conditions: for Bim degradation: following preconditioning ischemia
Description: (§1) Neurons were exposed to ischemic conditions, namely, oxygen and glucose deprivation (OGD), by washing the cells with phosphate-buffered saline (NaCl ([…]), KCl (2.7 mM), Na2HPO4 (10 mM), KH2PO4 (1.7 mM), pH 7.4) supplemented with 0.5 mM CaCl2, 1.0 mM MgCl2 and placing the cells (in culture dishes) in an anaerobic chamber (85% N2, 5% H2, 10% CO2; 35° C.) for 30 minutes (preconditioning ischemia) or 120 minutes (harmful ischemia).
Bim protein levels were determined by immunoblotting, and then the blots were re-probed with α-tubulin to control for loading.
(§2) In the top and middle panels of the figure, phosphorylation of p42/p44 MAPK was determined by immunoblot, and the blots were re-probed for total p42/p44 MAPK expression. In the bottom panel of the figure, cells were subjected to preconditioning ischemia and then recovered in the presence of U0126. Bim expression was determined by immunoblot. Data shown are representative of three independent experiments.
The effect of U0126 on Bim protein levels also was investigated following 30 minutes of OGD.

[1] = tested on: rat cortical neuronal cultures; assay: Rapid ischemic tolerance: cell death after harmful ischemia (OGD) with preconditioning ischemia, propidium iodide staining; format: cell-based; conditions: for rapid ischemic tolerance: neuronal cultures, preconditioning ischemia; for neuroprotective effect of preconditioning: 10 μM, one hour incubation following 30 minutes of preconditioning OGD, cell death 24 hours after 120 minutes of harmful ischemia
Description: as §1
Cell death was assessed 24 hours following 120 minutes of harmful ischemia using propidium iodide staining. Data shown are mean±S.E. (n=8). Data were analyzed by one-way ANOVA, with Bonferroni's post-hoc test. *, p<0.05.
Cells were incubated for one hour following 30 minutes of preconditioning OGD with either PD98059 or U0126 (both 10 μM), which are compounds that prevent p42/p44 MAPK activation by inhibiting an upstream regulatory MAPK kinase (MEK).

HCC1419 cells = assay: Cell death as LDH release (absorbance at 492 nm) in HCC1419 cells; format: cell-based; conditions: for EC50: Homo sapiens, LDH release
Description: (§3) The stabilization of Bim in cells by blocking Bim degradation may sensitize the cells to an additional anti-cancer agent and promote cell death. […] Cell death was measured as a release of the enzyme lactate dehydrogenase (LDH), which is detected as absorbance at 492 nm.
(§4) Cells were incubated with various concentrations of doxorubicin (μM) for 72 h, in the absence (solid squares) or presence (open circles) of 100 μM U0126.

Bim = conditions: following preconditioning ischemia
Source text: The experiments described in this example investigate the degradation of the pro-apoptotic Bcl-2 family member Bim as a mechanism of rapid ischemic tolerance.

[2] = tested on: GST-Bim polypeptide with TRIM2 protein; conditions: cells incubated with inhibitor, preconditioning ischemia
Description: To follow up on this observation, co-immunoprecipitation was utilized to determine whether TRIM2 binding to Bim correlates with the degradation of Bim following preconditioning ischemia in neuronal cultures. GST-Bim was incubated with cell lysates from control neurons (“CONT”; open bars) and neurons exposed to preconditioning ischemia (“PC”; hatched bars). GST-Bim interacting with TRIM2 then was co-immunoprecipitated with anti-TRIM 2 antibody and detected by immunoblot with an anti-GST antibody.

p42/p44 MAPK = tested on: p42/p44 MAPK
Description: as §2
As a control, the same blot was probed for non-phospho-p42/p44 MAPK.

MCF-7 cells = assay: Cell death as LDH release (absorbance at 492 nm) in MCF-7 cells; format: cell-based; conditions: 100 μM U0126
Description: as §3, §4

CC(C)C[C@@H](C=O)NC(=O)[C@H](CC(C)C)NC(=O)[C@H](CC(C)C)NC(=O)OCc1ccccc1 [MG-132] (Cbz-Leu-Leu-Leu-aldehyde)
Bim degradation (Bim protein): prevented Bim degradation
rapid ischemic tolerance [1]: blocked rapid ischemic tolerance

COc1cccc(-c2cc(=O)c3ccccc3o2)c1N [PD98059, 2-(2-Amino-3-methoxyphenyl)-4H-1-benzopyran-4-one]
neuroprotective effect of preconditioning [1]: blocked

N#CC(=C(/N)Sc1ccccc1N)/C(C#N)=C(\N)Sc1ccccc1N [U0126, 1,4-diamino-2,3-dicyano-1,4-bis(2-aminophenylthio)butadiene]
enhancement of doxorubicin-induced cell death (HCC1419 cells; HCC1419 cells (low Bim:TRIM2 ratio), 100 μM U0126): enhancement
cell death (LDH release) (HCC1419 cells; HCC1419 cells, U0126 alone): does not induce cell death
Bim protein expression in control-treated cells (Bim protein; control-treated cells, no preconditioning): no effect
Bim degradation (Bim protein): reduced; also recorded: blocks
decrease in Bim protein expression at one hour following 30 minutes of preconditioning ischemia (Bim protein; recovery in the presence of U0126): blocked
Bim ubiquitination (Bim): reduced
co-immunoprecipitation of GST-Bim polypeptide with TRIM2 protein [2]: reduced
neuroprotective effect of preconditioning [1]: blocked
rapid ischemic tolerance [1]: blocked rapid ischemic tolerance; also recorded: blocks
phosphorylation of MAPK in control cells (p42/p44 MAPK; control cells treated with U0126 alone): no phosphorylation of MAPK
total levels of p42/p44 MAPK (p42/p44 MAPK; following preconditioning ischemia or U0126 treatment): did not change
increase in p42/p44 MAPK phosphorylation following preconditioning ischemia (p42/p44 MAPK; one hour following preconditioning ischemia): blocked
enhancement of doxorubicin-induced cell death (MCF-7 cells; MCF-7 cells (high Bim:TRIM2 ratio)): not observed

COc1cccc2c1C(=O)c1c(O)c3c(c(O)c1C2=O)C[C@@](O)(C(=O)CO)C[C@@H]3O[C@H]1C[C@H](N)[C@H](O)[C@H](C)O1 [doxorubicin]
shift in the response to doxorubicin when U0126 is present (HCC1419 cells; HCC1419 cells, 72 h, 100 μM U0126): leftward shift
EC50 (HCC1419 cells; HCC1419 cells, 72 h, absence of U0126, read-out: calculated EC50 of doxorubicin alone): 60 µM
EC50 (HCC1419 cells; HCC1419 cells, 72 h, presence of 100 μM U0126, read-out: calculated EC50 of doxorubicin when combined with U0126): 0.01 µM
responsiveness to combination of doxorubicin and U0126 relative to doxorubicin alone (MCF-7 cells; MCF-7 cells, 72 h): no increased responsiveness
